The values that follow come from US20250059164A1, “IRAK DEGRADERS AND USES THEREOF” (Kymera Therapeutics, Inc., priority 2023, published 2025).

Usually DC50 stands for the midpoint of the concentration-degradation curve. A lower DC50 goes with degradation at low concentration.

The experiment has as its target T1, IRAK4 (Homo sapiens, UniProt Q9NWZ3).
T1 construct: endogenous in cells; host or cells: OCI-LY10
T1 sequence (Q9NWZ3 1-460): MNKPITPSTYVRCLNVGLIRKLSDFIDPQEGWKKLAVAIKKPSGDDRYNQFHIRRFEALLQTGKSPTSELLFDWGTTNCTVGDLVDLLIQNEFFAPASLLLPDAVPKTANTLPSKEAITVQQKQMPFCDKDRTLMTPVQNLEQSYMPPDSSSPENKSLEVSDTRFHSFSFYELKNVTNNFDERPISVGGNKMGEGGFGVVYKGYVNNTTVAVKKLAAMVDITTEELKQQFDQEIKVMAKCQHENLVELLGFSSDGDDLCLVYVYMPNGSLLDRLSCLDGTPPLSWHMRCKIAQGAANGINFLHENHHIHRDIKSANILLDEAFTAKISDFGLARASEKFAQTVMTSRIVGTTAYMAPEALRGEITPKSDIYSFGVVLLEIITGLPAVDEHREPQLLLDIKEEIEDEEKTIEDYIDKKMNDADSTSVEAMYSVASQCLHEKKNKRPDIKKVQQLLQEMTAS
In words: IRAK4 MSD degradation in OCI-LY10. In kind it is cell-based. The settings on record: OCI-LY10 cells, 24 hrs, Meso Scale Discovery. The method, boiled down: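 Remaining IRAK4 protein measured by Meso Scale Discovery electrochemiluminescence sandwich assay on lysates of OCI-LY10 cells. Cells were exposed for 4 to 24 hours (37° C., 5% CO2) to eight 1:3-diluted concentrations starting at 1 to 10 μM. DC50 derived by three-parameter logistic fitting.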
As for `C[C@H]1CN(c2ccn3ncc(C(=O)Nc4cn([C@H]5CC[C@H](CN(C)[C@H]6CCN(c7cccc8c7n(C)c(=O)n8C7CCC(=O)NC7=O)C[C@@H]6F)CC5)nc4C(F)F)c3n2)CCO1` (some centres unmarked) [I-25], the DC50 was under 10 nM.

Consider `C[C@H]1CN(c2ccn3ncc(C(=O)Nc4cn([C@H]5CC[C@H](CN(C)C6CCN(c7cccc8c7n(C)c(=O)n8C7CCC(=O)NC7=O)C[C@@H]6F)CC5)nc4C(F)F)c3n2)CCO1` (some centres unmarked) [I-26], for which the DC50 is under 10 nM.

The compound `CN(C[C@H]1CC[C@H](n2cc3cc(NC(=O)c4cccc(C(F)(F)F)n4)ccc3n2)CC1)[C@H]1CCN(c2cccc3c2n(C)c(=O)n3C2CCC(=O)NC2=O)C[C@H]1F` (some centres unmarked) [I-31] returned a DC50 of under 10 nM.

For the compound `CN(C[C@H]1CC[C@H](n2cc3cc(NC(=O)c4cccc(C(F)(F)F)n4)ccc3n2)CC1)C1CCN(c2cccc3c2n(C)c(=O)n3C2CCC(=O)NC2=O)C[C@@H]1F` (some centres unmarked) [I-32], the DC50 is under 10 nM.

With `CN(C[C@H]1CC[C@H](n2cc3cc(NC(=O)c4cccc(C(F)(F)F)n4)ccc3n2)CC1)[C@H]1CCN(c2cccc3c2n(C)c(=O)n3C2CCC(=O)NC2=O)C[C@@H]1F` (some centres unmarked) [I-33], the DC50 fell in the range of 10 to 100 nM.

As to `CN(C[C@H]1CC[C@H](n2cc3cc(NC(=O)c4cccc(C(F)(F)F)n4)ncc3n2)CC1)[C@H]1CCN(c2cccc3c2n(C)c(=O)n3C2CCC(=O)NC2=O)C[C@H]1F` (some centres unmarked) [I-34], the DC50 was under 10 nM.

The compound `CN(C[C@H]1CC[C@H](n2cc3cc(NC(=O)c4cccc(C(F)(F)F)n4)ncc3n2)CC1)[C@@H]1CCN(c2cccc3c2n(C)c(=O)n3C2CCC(=O)NC2=O)C[C@@H]1F` (some centres unmarked) [I-35] yielded a 50% degradation concentration (DC50) of under 10 nM.

`CC(C)Oc1cc2nc([C@H]3CC[C@H](CN4CCC(c5ccc6c(c5)n(C)c(=O)n6C5CCC(=O)NC5=O)CC4)CC3)cn2cc1C(=O)Nc1cccn([C@H]2C[C@H]2F)c1=O` (some centres unmarked) [I-37] had a DC50 of under 10 nM.

`O=C1CCC(c2ccc(N3CC(CO[C@@H]4CCN(C[C@H]5CC[C@H](n6cc(NC(=O)c7cnn8ccc(N9C[C@H]%10C[C@@H]9CO%10)nc78)c(C(F)F)n6)CC5)C[C@@H]4F)C3)cc2Cl)C(=O)N1` (some centres unmarked) [I-38] registered a DC50 of under 10 nM.

`Cn1c(NC(=O)c2cccc(C(F)(F)F)n2)cc2cn([C@H]3CC[C@H](CN4CC[C@@H](c5cccc6c5n(C)c(=O)n6C5CCC(=O)NC5=O)C(F)(F)C4)CC3)nc2c1=O` (some centres unmarked) [I-39] registered a DC50 of over 200 nM.

The compound `CN(C[C@H]1CC[C@H](n2cc(NC(=O)c3cnn4ccc(N5CCCC5)nc34)c(C(F)F)n2)CC1)[C@@H]1CCN(c2cccc3c2n(C)c(=O)n3C2CCC(=O)NC2=O)C[C@H]1F` (some centres unmarked) [I-40] yielded a DC50 of under 10 nM.

On to `Cc1nn(C2CCC(=O)NC2=O)c2cccc(N3CCN(C[C@@H]4COC5(C4)CN(C[C@H]4CC[C@H](n6cc(NC(=O)c7cnn8ccc(N9C[C@H]%10C[C@@H]9CO%10)nc78)c(C(F)F)n6)CC4)C5)CC3)c12` (some centres unmarked) [I-42], for which the DC50 was under 10 nM.

In turn, `Cn1c(NC(=O)c2cccc(C(F)(F)F)n2)cc2cn([C@H]3CC[C@H](CN4CC[C@H](c5cccc6c5n(C)c(=O)n6C5CCC(=O)NC5=O)[C@@H](F)C4)CC3)nc2c1=O` (some centres unmarked) [I-43] yielded a DC50 of over 200 nM.

`COc1nc(NC(=O)c2cccc(C(F)F)n2)cc2cn([C@H]3CC[C@H](CN4CC[C@H](c5cccc6c5n(C)c(=O)n6C5CCC(=O)NC5=O)C(F)(F)C4)CC3)nc12` (some centres unmarked) [I-44] yielded a DC50 of 10 to 100 nM.

With `Cc1nn(C2CCC(=O)NC2=O)c2cccc(N3CC(CN4CCN(C[C@H]5CC[C@H](n6cc(NC(=O)c7cnn8ccc(N9C[C@H]%10C[C@@H]9CO%10)nc78)c(C(F)F)n6)CC5)CC4)C3)c12` (some centres unmarked) [I-45], the DC50 was under 10 nM.

For the compound `COc1cc2nn([C@H]3CC[C@H](CN4CCN(c5cccc6c5c(C)nn6C5CCC(=O)NC5=O)CC4)CC3)cc2cc1NC(=O)c1cncc(C#N)c1` (some centres unmarked) [I-48], the DC50 is 10 to 100 nM.

Compound `COc1cc2nn([C@H]3CC[C@H](CN4CCC5(CC4)CCN(c4cccc6c4c(C)nn6C4CCC(=O)NC4=O)CC5)CC3)cc2cc1NC(=O)c1cncc(C#N)c1` (some centres unmarked) [I-49] had a DC50 of 10 to 100 nM.

Compound `COc1cc2nn([C@H]3CC[C@H](CN4CCC5(CC4)CCN(c4cccc6c4c(C)nn6C4CCC(=O)NC4=O)CC5)CC3)cc2cc1NC(=O)c1cncc(C)c1` (some centres unmarked) [I-50] had a DC50 of 10 to 100 nM.

`C[C@H]1CN(c2ccn3ncc(C(=O)Nc4cn([C@H]5CC[C@H](CN(C)[C@H]6CCN(c7cccc8c7n(C)c(=O)n8C7CCC(=O)NC7=O)C[C@H]6F)CC5)nc4C(F)F)c3n2)CCO1` (some centres unmarked) [I-51] gave a DC50 of under 10 nM.

As for `Cc1nn(C2CCC(=O)NC2=O)c2cccc([C@H]3CCN(C[C@H]4CC[C@H](n5cc6cc(NC(=O)c7cccc(C(F)(F)F)n7)ncc6n5)CC4)C[C@@H]3F)c12` (some centres unmarked) [I-53], the DC50 was 10 to 100 nM.

As for `Cc1nn(C2CCC(=O)NC2=O)c2cccc(N3CC(N4CCN([C@H]5CC[C@H](n6cc(NC(=O)c7cnn8ccc(N9C[C@H]%10C[C@@H]9CO%10)nc78)c(C(F)F)n6)CC5)CC4)C3)c12` (some centres unmarked) [I-54], the DC50 was under 10 nM.

Compound `O=C1CCC(c2ccc(N3CC(CO[C@H]4CCN(C[C@H]5CC[C@H](n6cc(NC(=O)c7cnn8ccc(N9C[C@H]%10C[C@@H]9CO%10)nc78)c(C(F)F)n6)CC5)C[C@@H]4F)C3)cc2Cl)C(=O)N1` (some centres unmarked) [I-55] displayed a DC50 of 10 to 100 nM.

On to `Cc1nn(C2CCC(=O)NC2=O)c2cccc(N3CC(CO[C@@H]4CCN(C[C@H]5CC[C@H](n6cc(NC(=O)c7cnn8ccc(N9C[C@H]%10C[C@@H]9CO%10)nc78)c(C(F)F)n6)CC5)C[C@@H]4F)C3)c12` (some centres unmarked) [I-56], for which the half-maximal degradation concentration (DC50) was under 10 nM.

In turn, `Cc1nn(C2CCC(=O)NC2=O)c2cccc(N3CC(N4CCN([C@H]5CC[C@@H](n6cc(NC(=O)c7cnn8ccc(N9C[C@H]%10C[C@@H]9CO%10)nc78)c(C(F)F)n6)CC5)CC4)C3)c12` (some centres unmarked) [I-57] came in with a DC50 of over 200 nM.

As to `CN(C[C@H]1CC[C@H](n2cc3cc(NC(=O)c4cccc(C(F)(F)F)n4)c(C#N)cc3n2)CC1)[C@@H]1CCN(c2cccc3c2n(C)c(=O)n3C2CCC(=O)NC2=O)C[C@H]1F` (some centres unmarked) [I-58], the DC50 is under 10 nM.

The compound `O=C1CCC(Nc2ccc(N3CC(CN4CCN(C[C@H]5CC[C@H](n6cc(NC(=O)c7cnn8ccc(N9C[C@H]%10C[C@@H]9CO%10)nc78)c(C(F)F)n6)CC5)CC4)C3)cc2)C(=O)N1` (some centres unmarked) [I-61] had a DC50 of 10 to 100 nM.

`CN(c1cccc(N2CCN(C[C@H]3CC[C@H](n4cc5cc(NC(=O)c6cccc(C(F)(F)F)n6)ncc5n4)CC3)CC2)c1)C1CCC(=O)NC1=O` (some centres unmarked) [I-62] gave a DC50 of 100 to 200 nM.

In turn, `Cn1c(=O)n(C2CCC(=O)NC2=O)c2cccc([C@H]3CCN(C[C@H]4CC[C@H](n5cc6cc(NC(=O)c7cccc(C(F)(F)F)n7)c(C(C)(C)O)cc6n5)CC4)C[C@@H]3F)c21` (some centres unmarked) [I-63] returned a DC50 of under 10 nM.

In turn, `CN(C[C@H]1C[C@@H](n2cc(NC(=O)c3cnn4ccc(N5C[C@H]6C[C@@H]5CO6)nc34)c(C(F)F)n2)C1)[C@@H]1CCN(c2cccc3c2n(C)c(=O)n3C2CCC(=O)NC2=O)C[C@@H]1F` (some centres unmarked) [I-64] registered a DC50 of under 10 nM.

`CN(C[C@H]1C[C@@H](n2cc(NC(=O)c3cnn4ccc(N5C[C@H]6C[C@@H]5CO6)nc34)c(C(F)F)n2)C1)[C@H]1CCN(c2cccc3c2n(C)c(=O)n3C2CCC(=O)NC2=O)C[C@H]1F` (some centres unmarked) [I-65] registered a DC50 of under 10 nM.

Turning to `O=C1CCN(c2cncc3c(N4CC(O)(CN5CCN(C[C@H]6CC[C@H](n7cc(NC(=O)c8cnn9ccc(N%10C[C@H]%11C[C@@H]%10CO%11)nc89)c(C(F)F)n7)CC6)CC5)C4)cccc23)C(=O)N1` [I-67], the DC50 was under 10 nM.

For `CN(C[C@H]1CC[C@H](n2cc3cc(NC(=O)c4cccc(C(F)(F)F)n4)c(C(C)(C)O)cc3n2)CC1)[C@H]1CCN(c2cccc3c2n(C)c(=O)n3C2CCC(=O)NC2=O)C[C@@H]1F` (some centres unmarked) [I-68], the DC50 is under 10 nM.
